Results from patent publication US20250115595A1, “INHIBITORS OF HYPOXIA-INDUCIBLE FACTORS” (The Johns Hopkins University, priority 2021, published 2025).

test system: HIF transcriptional activity; test: Luciferase reporter assay (FLuc/RLuc) in hypoxic Hep3B-c1 cells; format: cell-based; conditions: Homo sapiens, FLuc/RLuc ratio, 1% O2, 24 hours
Procedure: The NCI CellMiner database contains expression data on 25,698 mRNAs in 60 human cancer cell lines that were exposed to 21,770 chemical compounds (Reinhold W C, et. al., Cancer Res. 2012; 72(14):3499-3511). The CellMiner database was interrogated for compounds that induced changes in gene expression highly correlated with those induced by acriflavine, but would be structurally unrelated to acriflavine. Compounds that satisfied these criteria were analyzed in Hep3B-c1 cells (Zhang H. et. al., Proc Natl Acad Sci USA. 2008; 105(50):19579-19586), which are stably transfected with: HIF dependent reporter plasmid p2.1, in which firefly luciferase (FLuc) coding sequences are located downstream from a hypoxia response element (HRE) and a basal SV40 promoter; and control reporter pSVR, in which Renilla luciferase (RLuc) coding sequences are downstream of the basal SV40 promoter only (FIG. 1A).
Hep3B-c1 cells (Zhang 2008), which are stably co-transfected with reporter plasmids p2.1, a hypoxia-inducible firefly luciferase reporter gene containing a hypoxia response element (HRE), and pSVR, a constitutively expressed Renilla luciferase reporter gene, were seeded on 24-well plates. Cells were treated with compounds the following day and exposed to 20% or 1% O2 for 24 hours. For transient transfection, cells were seeded, transfected with the listed plasmids and compounds, and exposed to 20% or 1% O2 for 24 hours. FLuc/RLuc ratios were determined using the Dual Luciferase Reporter Assay System (Promega) and the VICTOR Nivo plate reader (PerkinElmer).

**Q.** Which IC50 does the source give for `c1ccc2c(-c3nsc(-c4c[nH]c5ccccc45)n3)c[nH]c2c1` [Compound 33-063, 3,5-di(1H-indol-3-yl)-1,2,4-thiadiazole] here?
**A.** 2.2 µM

**Q.** Which IC50 does the source give for `Fc1ccc2c(-c3nc(-c4c[nH]c5cc(Br)ccc45)cs3)c[nH]c2c1` [Compound 12-147A] here?
**A.** 2.52 µM

**Q.** For `Brc1ccc2c(-c3csc(-c4c[nH]c5ccccc45)n3)c[nH]c2c1` [Compound 12-58], which IC50 is on record?
**A.** 3.09 µM

**Q.** For `Clc1ccc2c(-c3nc(-c4c[nH]c5cc(Br)ccc45)cs3)c[nH]c2c1` [Compound 12-147B], which IC50 is on record?
**A.** 3.08 µM

**Q.** With `Brc1ccc2c(-c3nc(-c4c[nH]c5c(Br)cccc45)cs3)c[nH]c2c1` [Compound 13-03] as the compound, how does the IC50 read?
**A.** 2.69 µM

**Q.** With `Brc1ccc2c(-c3nc(-c4cnc5ncccn45)cs3)c[nH]c2c1` [Compound 12-70C] as the compound, how does the IC50 read?
**A.** 2.31 µM

**Q.** For `c1ccc2c(-c3ccnc(-c4c[nH]c5ccccc45)n3)c[nH]c2c1` [Compound 35-020], which IC50 is on record?
**A.** 2.37 µM

**Q.** With `O=c1[nH]c2ccc(-c3csc(-c4c[nH]c5ccccc45)n3)cc2o1` [Compound 12-93A] as the compound, how does the IC50 read?
**A.** 2.4 µM

**Q.** Which IC50 does the source give for `Brc1cccc2c(-c3csc(-c4c[nH]c5c(Br)cccc45)n3)c[nH]c12` [Compound 13-01] here?
**A.** 2.07 µM

**Q.** With `c1ccc2c(-c3cncc(-c4c[nH]c5ccccc45)n3)c[nH]c2c1` [Compound 34-110] as the compound, how does the IC50 read?
**A.** 1.27 µM

**Q.** With `Brc1ccc2[nH]cc(-c3nnc(-c4c[nH]c5ccccc45)o3)c2c1` [Compound 33-093B] as the compound, how does the IC50 read?
**A.** 2.7 µM

**Q.** For `c1ccc2c(-c3csc(-c4c[nH]c5ccccc45)n3)c[nH]c2c1` [Compound 33-057A], which IC50 is on record?
**A.** 2.86 µM

**Q.** Which IC50 does the source give for `O=c1[nH]cc(-c2c[nH]c3ccccc23)nc1-c1c[nH]c2ccccc12` [Compound 33-123] here?
**A.** 3.24 µM

**Q.** Which IC50 does the source give for `c1ccc2c(-c3cc(-c4c[nH]c5ccccc45)on3)c[nH]c2c1` [Compound 35-140] here?
**A.** 1.94 µM

**Q.** With `Brc1ccc2c(-c3nc(-c4c[nH]c5ccc(Br)cc45)cs3)c[nH]c2c1` [Compound 11-88] as the compound, how does the IC50 read?
**A.** 2.9 µM

**Q.** Which IC50 does the source give for `Brc1ccc2[nH]cc(-c3nnc(-c4c[nH]c5ccc(Br)cc45)o3)c2c1` [Compound 33-103B] here?
**A.** 2.87 µM

**Q.** Which IC50 does the source give for `Fc1cccc2c(-c3nc(-c4c[nH]c5cc(Br)ccc45)cs3)c[nH]c12` [Compound 12-143] here?
**A.** 2.6 µM

**Q.** With `Clc1ncc(-c2c[nH]c3ccccc23)nc1-c1c[nH]c2ccccc12` [Compound 34-146] as the compound, how does the IC50 read?
**A.** 2.04 µM

**Q.** Which IC50 does the source give for `Brc1ccc2[nH]cc(-c3csc(-c4c[nH]c5ccccc45)n3)c2c1` [Compound 11-147B] here?
**A.** 2.92 µM

**Q.** With `Brc1ccc2c(-c3nnc(-c4c[nH]c5cc(Br)ccc45)o3)c[nH]c2c1` [Compound 33-103C] as the compound, how does the IC50 read?
**A.** 2.8 µM

**Q.** For `c1ccc2c(-c3nnc(-c4c[nH]c5ccccc45)o3)c[nH]c2c1` [Compound 33-087], which IC50 is on record?
**A.** 2.51 µM

**Q.** For `c1ccc2c(-c3cc(-c4c[nH]c5ccccc45)[nH]n3)c[nH]c2c1` [Compound 35-092], which IC50 is on record?
**A.** 2.07 µM

**Q.** For `c1ccc2c(-c3nc(-c4cnc5ncccn45)cs3)c[nH]c2c1` [Compound 12-93F], which IC50 is on record?
**A.** 2.48 µM

**Q.** With `Brc1ccc2c(-c3csc(-c4c[nH]c5cc(Br)ccc45)n3)c[nH]c2c1` [Compound 32-134C] as the compound, how does the IC50 read?
**A.** 2.3 µM

**Q.** With `c1cc(-c2c[nH]c3ccccc23)nc(-c2c[nH]c3ccccc23)c1` [Compound 34-090] as the compound, how does the IC50 read?
**A.** 1.83 µM

test system: advanced HCC; test: not given; conditions: advanced HCC patients; cited from earlier work

**Q.** For `CNC(=O)c1cc(Oc2ccc(NC(=O)Nc3ccc(Cl)c(C(F)(F)F)c3)cc2)ccn1` [sorafenib], which survival benefit is on record?
**A.** 2-3 months

test system: HIF target genes; test: RT-qPCR of HIF target gene expression in Hep3B cells; format: cell-based, human; conditions: not given
Procedure: Based on hit compound 11-88, a number of analogs were prepared in which either halogen substitutions to the indole groups were altered or the central thiazole was replaced by imidazole, isoxazole, oxadiazole, oxazole, pyrazinone, pyridazine, pyrazine, pyrazole, pyridine, thiadiazole, triazine, or triazole. […] The bis-bromoindole thiazole 32-134D and the bis-indole thiadiazole 33-063 (FIGS. 1B and 1C) were further characterized with respect to endogenous HIF target gene expression in Hep3B cells. […] For comparison, we tested the effect of PT2385, which inhibited EPO, NDRG1, ANGPTL4, and VEGFA expression but had no effect on CA9, which is consistent with its HIF-2-selective mechanism of action (Wallace E M et al., Cancer Res. 2016; 76(18):5491-5500). None of the compounds had any effect on RPL13A expression, which is neither hypoxia-induced nor HIF-regulated (FIG. 3).
(§1) Human Hep3B and mouse Hepa1-6 cells were purchased from ATCC and grown in high-glucose (4.5 mg/ml) Dulbecco's modified Eagle's medium supplemented with 10% (vol/vol) fetal bovine serum and […] at 37° C. in a 5% CO2/95% air incubator (20% O2). Human cell line identity was authenticated by analysis of short tandem repeats, and all cell lines were maintained mycoplasma free, using PCR-based assays conducted at the Johns Hopkins University Genetic Resources Core Facility. Cells were subjected to hypoxia in a controlled atmosphere chamber (PLAS Labs) with ambient gas mixture containing 1% O2 and 5% CO2.
(§2) RNA was extracted using TRIzol Reagent (ThermoFisher). Quantitative Real-time PCR was conducted using SYBR Green PCR Master Mix (BioRad) and reactions were run using the BioRad thermal cycler (BioRad). The mRNA expression of target genes was normalized to the expression of 18S rRNA and the fold change (FC) was calculated based on the threshold cycle (Ct) as
FC=2^−Δ(ΔCt) where ΔCt=Cttarget gene−Ct18S rRNA and Δ(ΔCt)=ΔCttreatment−ΔCtcontrol.

**Q.** With `c1ccc2c(-c3nsc(-c4c[nH]c5ccccc45)n3)c[nH]c2c1` [Compound 33-063, 3,5-di(1H-indol-3-yl)-1,2,4-thiadiazole] as the compound, how does the “hypoxia-induced expression of HIF target genes CA9, ANGPTL4, VEGFA, NDRG1 and EPO” value read?
**A.** inhibited

**Q.** For `CS(=O)(=O)c1ccc(Oc2cc(F)cc(C#N)c2)c2c1[C@H](O)C(F)(F)C2` [PT2385, reference compound], which CA9 expression is on record?
**A.** no effect

**Q.** What about the “EPO, NDRG1, ANGPTL4 and VEGFA expression” value of the same compound?
**A.** inhibited

test system: Hepa1-6 mouse HCC cells; test: RT-qPCR of hypoxia-induced mRNAs in Hepa1-6 cells; format: cell-based; conditions: hypoxic Hepa1-6 cells
Procedure: Effects of 32-134D on Hepa1-6 mouse HCC cells and tumors. […] Thus, 32-134D inhibits the ability of hypoxic HCC cells to increase O2 delivery by stimulating angiogenesis (Angpt14, Pgf, Vegfa) or […] anaerobic metabolism by increasing glycolytic flux (Glut1, Pgk1, Ldha).
as §1
as §2, with “(Ct) as […]” for “(Ct) as”

**Q.** For `c1ccc2c(-c3nsc(-c4c[nH]c5ccccc45)n3)c[nH]c2c1` [Compound 33-063, 3,5-di(1H-indol-3-yl)-1,2,4-thiadiazole], which “hypoxia-induced expression of mRNA encoding Angpt14, Pgf, Vegfa and Pgk1” value is on record?
**A.** significant dose-dependent inhibition

**Q.** With `CS(=O)(=O)c1ccc(Oc2cc(F)cc(C#N)c2)c2c1[C@H](O)C(F)(F)C2` [PT2385, reference compound] as the compound, how does the “expression of Pgk1 mRNA” value read?
**A.** no effect

same assay, conditions: hypoxic Hepa1-6 cells, compared with 33-063 and 32-134D

**Q.** With `CS(=O)(=O)c1ccc(Oc2cc(F)cc(C#N)c2)c2c1[C@H](O)C(F)(F)C2` [PT2385, reference compound] as the compound, how does the “Angpt14, Pgf, and Vegfa mRNA expression” value read?
**A.** less potent inhibitor
